The source of these data is patent publication US11214570B2, “Pyrrolopyridine derivative, method for producing same, and use thereof” (ST PHARM CO., LTD., priority 2017, dated 2022).

In series [1] the test system is HIV-1 NL4-3 wt. As to the kind of experiment: Inhibition of HIV-1 NL4-3 wt. In kind it is cell-based. The following applies: Human immunodeficiency virus 1, NL43. The method, then: (§1) In order to look into the HIV-1 (Wild/Mutant type) inhibition effects of the compound of the invention, a test for HIV-1 (Wild/Mutant type) inhibition effect was carried out in vitro as follows according to a known method (H. Tanaka et al., J. Med. Chem., 1991, 34, 349). MT-4 cells were used as host cells, and the degree of the compound of the present invention inhibiting cytotoxicity for the virus-infected MT-4 cells was investigated.
(§2) First, MT-4 cells were dispersed in a culture medium at a concentration of 1×10^4cells/well, and HIV-1 was inoculated so that the concentration was 500 TCI50 (concentration at which 50% of the cells are infected)/well. Immediately after the inoculation, the cell dispersion was transferred in 100 μL each to a flat microtiter plate in which a sample of the compound of the invention was placed. The sample was incubated for approximately for 4 to 5 days at […], and the virus inhibition effect was determined with an MTT method. […] As a comparative compound, azidothymidine (AZT), Raltegravir, Dolutegravir, and Elvitegravir were used.

Series [2] relates to HIV-1 Clone 4736_2. Nature of the series: microbe, parasite or virus in culture. Type of series: cell-based. Conditions: Human immunodeficiency virus 1. As to the method:
as §1, §2

The test system of series [3] is HIV-1 Clone 4736_4. As to the kind of experiment: Inhibition of HIV-1 clone 4736_4 (Raltegravir resistance mutant). In kind it is cell-based. Conditions: Human immunodeficiency virus 1. The method, then:
as §1, §2

Series [4] deals with HIV-1 Clone 8070_1. As to the kind of experiment: Inhibition of HIV-1 clone 8070_1 (Raltegravir resistance mutant). Type of series: cell-based. Conditions: Human immunodeficiency virus 1. As to the method:
as §1, §2

For series [5], the system named is HIV-1 Clone 1556_1. As to the kind of experiment: Inhibition of HIV-1 clone 1556_1 (Raltegravir resistance mutant). Conditions: Human immunodeficiency virus 1. Type of series: cell-based. The method, then:
as §1, §2

The nature of series [6]: Liver microsomal stability, rat. In kind it is in vitro ADME. The following applies: rat liver microsome, NADPH. The method, then: (§3) The in vitro metabolic stability test was conducted for the compound of Example 1 of the present invention. In order to confirm in vitro metabolic stability, liver microsomal half-life of the compound was observed. A drug compound was reacted with NADPH using a species-specific (rat, dog, monkey, and human) liver microsome containing various metabolizing enzymes, and then half-life of the drug was determined by quantifying with LC-MS/MS in minutes.

The nature of series [7]: Liver microsomal stability, dog. Type of series: in vitro ADME. The following applies: dog liver microsome, NADPH, read-out: Dog liver (T1/2, Min). As to the method:
as §3
On the technique in general: Microsomes from liver hold many membrane-bound enzymes, among them those of drug oxidation.

Series [8] in a line: Liver microsomal stability, monkey. The following applies: monkey liver microsome, NADPH, read-out: Monkey liver (T1/2, Min). Type of series: in vitro ADME. The method, then: as §3
A short description of series [9]: Liver microsomal stability, human. Conditions: human liver microsome, NADPH. Type of series: in vitro ADME. As to the method:
as §3

Series [10] relates to Wild Type HIV-1(IIIB). Nature of the series: Inhibition of wild type HIV-1(IIIB) in MT-4 cells (MTT method). In kind it is cell-based. The method, then:
as §1, §2
On the technique in general: Tetrazolium assays rely on reduction of a dye to a coloured formazan, in cell work by metabolically active cells.

Series [11] relates to HIV-1 Clone 8070_2. Nature of the series: Inhibition of HIV-1 clone 8070_2 (Raltegravir resistance mutant). Type of series: cell-based. The following applies: Human immunodeficiency virus 1. As to the method:
as §1, §2

Series [12] can be described thus: Pharmacokinetics test in male rats. In kind it is in vivo, rat. As to the method: Experiments were carried out to detect changes in in vivo kinetics including in vivo absorption, distribution, metabolism and excretion for the compound of Example 1 of the present invention. A tube was inserted into the jugular vein and femoral vein of a rat. A drug was administered into the femoral vein in the case of intravenous administration, and a drug was administered into the oral cavity in the case of oral administration. Blood was collected from the jugular vein at a predetermined time. Dose concentration was 1 mg/kg for intravenous administration, and it was 2 mg/kg for oral administration. After centrifuging blood to separate plasma, the plasma and urine samples were pretreated with an appropriate organic solvent, and then concentration of the drug was analyzed with LC-MS/MS. From the data of the drug concentration in blood relative to time which were analyzed after oral and intravenous administrations, the noncompartmental pharmacokinetic parameter was calculated with WinNonlin (Pharsight, USA).

The target of series [13] is T1, hERG K+ channel (Homo sapiens, UniProt Q12809).
T1 construct: expressed in transfected cells; host or cells: HERG-HEK293
Nature of the series: hERG K+ channel assay (Patch Clamp Recording Method). Conditions: HERG-HEK293, automated planar patch clamp. In kind it is cell-based. As to the method: hERG K^+ channel assay was carried out to predict cardiotoxicity for the compound of the invention. The hERG activity of the compound was measured with HERG-HEK293 using automated planar patch clamp [PatchXpress 7000A]. This method is the most well-known method for studying ion channel, in which the flow of ions through the channel is directly measured with a voltage clamp.

The test system of series [14] is CYP1A2, CYP2C9, CYP2D6, CYP3A4 and CYPC19. Nature of the series: CYP450 inhibition test (five enzymes, text summary). In kind it is in vitro ADME. The following applies: human liver microsomes, 10 μM. The method, then: The CYP450 inhibition test was carried out for the compound of the present invention. To human liver microsomes (0.25 mg/ml), 0.1 M phosphate buffer (pH 7.4) and drug cocktails of five drug-metabolizing enzymes (CYP1A2, CYP2C9, CYP2D6, CYP3A4 and CYPC19) (Cocktail A: Phenacetin 50 μM, S-mephenytoin 100 μM, dextromethorphan 5 nM, midazolam 2.5 μM, Cocktail B: tolbutamide 100 μM), the compound of Example 1 was added at concentrations of 0 and 10 μM, respectively, and then cultured at 37° C. for 15 minutes. Subsequently, in order to terminate the reaction, an acetonitrile solution containing an internal standard (chloropropamide) was added thereto, and resulting mixture was centrifuged (14,000 rpm, 4° C.) for 5 minutes. Supernatant was then injected into LC/MS/MS system and the metabolites of the substrate drugs were simultaneously analyzed to thereby evaluate activities of the test compound inhibiting the drug-metabolizing enzymes.

The mark [15] stands for this setting: Human immunodeficiency virus 1, IIIB, MT4, read-out: EC50: concentration of 50% inhibition of HIV infection.

A word on the IC50: it is the concentration needed to halve the response being measured. As a reminder, the AUC(0-inf) is the area under the concentration-time curve extrapolated to infinity. Usually AUC(0-t) stands for the area under the concentration-time curve up to a stated or last time point. In general, clearance refers to the rate of elimination divided by the concentration. The Cmax is the maximum level reached in the sampled fluid or tissue. The Tmax is the time from dosing to the highest level.

Where two headings read alike, the source gives them in different places.

T1 sequence (Q12809 whole entry): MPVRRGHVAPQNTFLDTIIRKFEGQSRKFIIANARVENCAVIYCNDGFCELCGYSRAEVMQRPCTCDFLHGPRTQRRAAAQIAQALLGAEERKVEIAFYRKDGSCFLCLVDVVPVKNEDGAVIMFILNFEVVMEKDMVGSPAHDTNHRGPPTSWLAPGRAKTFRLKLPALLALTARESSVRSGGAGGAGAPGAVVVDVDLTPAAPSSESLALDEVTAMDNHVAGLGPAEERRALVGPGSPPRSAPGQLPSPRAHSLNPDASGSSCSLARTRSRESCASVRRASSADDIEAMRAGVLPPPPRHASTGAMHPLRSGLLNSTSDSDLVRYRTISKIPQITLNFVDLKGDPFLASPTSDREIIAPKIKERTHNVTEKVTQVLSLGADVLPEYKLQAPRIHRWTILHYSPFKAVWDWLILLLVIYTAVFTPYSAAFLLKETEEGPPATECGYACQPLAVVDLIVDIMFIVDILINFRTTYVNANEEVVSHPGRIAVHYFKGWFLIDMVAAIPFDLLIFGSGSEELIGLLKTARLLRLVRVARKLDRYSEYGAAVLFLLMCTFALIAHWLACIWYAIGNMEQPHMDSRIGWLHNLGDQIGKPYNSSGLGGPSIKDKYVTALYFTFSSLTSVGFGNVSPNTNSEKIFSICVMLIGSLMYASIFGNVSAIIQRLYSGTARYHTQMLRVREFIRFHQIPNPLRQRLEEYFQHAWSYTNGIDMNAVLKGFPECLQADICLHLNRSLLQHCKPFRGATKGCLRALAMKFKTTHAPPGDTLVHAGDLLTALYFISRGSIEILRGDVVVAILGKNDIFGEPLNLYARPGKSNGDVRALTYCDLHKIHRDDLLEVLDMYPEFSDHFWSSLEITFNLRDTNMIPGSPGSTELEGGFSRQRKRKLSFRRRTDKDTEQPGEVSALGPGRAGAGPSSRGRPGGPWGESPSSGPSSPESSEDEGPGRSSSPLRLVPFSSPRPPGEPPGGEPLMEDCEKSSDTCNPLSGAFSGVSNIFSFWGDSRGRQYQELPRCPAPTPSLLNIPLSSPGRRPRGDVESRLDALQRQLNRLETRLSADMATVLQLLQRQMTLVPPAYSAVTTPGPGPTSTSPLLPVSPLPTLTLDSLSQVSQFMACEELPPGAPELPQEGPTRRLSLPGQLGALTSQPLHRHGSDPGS

Consider `COc1cc2c(cc1Cc1cccc(Cl)c1F)c(=O)c(C(=O)O)cn2[C@H](CO)C(C)C` [Elvitegravir], for which the half-maximal inhibitory concentration (IC50) is less than 0.1 nM in series [1]; 410 nM in series [2]; 320 nM in series [3]; more than 10000 nM in series [4]; 276 nM in series [5].

On to `C[C@]12CC[C@H]3[C@@H](CCC4=CC(=O)CC[C@@]43C)[C@@H]1CC[C@@H]2O` [Testosterone, reference compound], for which the “Rat liver (T1/2, Min)” value in series [6] came out at 0.7 min. Further, the values for the half-life in series [7] (microsomes) and in [8] (microsomes) were 23.6 min and 13 min, respectively. Besides, the “Human liver (T1/2, Min)” value in series [9] came to 19.7 min.

As for `Cc1nc2c(c(C)c(C)n2Cc2cnn(C)c2)c(-c2ccc(Cl)cc2)c1[C@H](OC(C)(C)C)C(=O)O` [Example 1], the EC50 in series [10] (setting [15]) came to 3.23 nM. Further, the IC50 in series [1] turned out to be 3.6 nM; in series [2], 1.1 nM; in series [3], 3.4 nM; in series [4], 0.9 nM; in series [11], 3.4 nM; in [5] it was 3.4 nM. The half-inhibitory concentration (IC50) in series [13] was determined as 66.7 µM. The same molecule came in with a F in series [12] (PO, 2 mg/kg) of 71.8%. Also, the AUC(0-inf) in [12] (rat, plasma, IV, 1 mg/kg) turned out to be 6.51 µM·h; in series [12] (rat, plasma, PO, 2 mg/kg) it was 10.4 µM·h. In addition, the area under the curve AUC(0-t) in [12] (rat, plasma, IV, 1 mg/kg) is 6.08 µM·h; in series [12] (rat, plasma, PO, 2 mg/kg), 8.73 µM·h. The molecule further gave a clearance in series [12] (rat, plasma, IV, 1 mg/kg) of 5.38 mL/min/kg. Also, the half-life was 518 min in [12] (rat, plasma, IV, 1 mg/kg); 520 min in series [12] (rat, plasma, PO, 2 mg/kg); more than 145 min in series [6] (liver microsomes, read-out: Rat liver (T1/2, Min)); more than 145 min in series [7] (liver microsomes); 133 min in series [8] (liver microsomes); 136 min in [9] (liver microsomes, read-out: Human liver (T1/2, Min)). In addition, in [12] (rat, plasma, IV, 1 mg/kg, read-out: Vss), the Vd stood at 1.77 L/kg. Also, the concentration in series [12] (rat, plasma, PO, 2 mg/kg) peaked (Cmax) at 914 nM. Further, the time of peak concentration (Tmax) in [12] (rat, plasma, PO, 2 mg/kg) amounted to 3.2 h. Moreover, the “inhibitory activity against five CYP enzymes” value in series [14] is “does not exhibit an inhibitory activity”.

For `Cc1nnc(C(=O)NC(C)(C)c2nc(C(=O)NCc3ccc(F)cc3)c(O)c(=O)n2C)o1` [Raltegravir], the EC50 in series [10] (setting [15]) is 5.85 nM. Further, the IC50 worked out at 4.6 nM in series [1]; 351 nM in [2]; 351 nM in series [3]; 4320 nM in series [4]; 3840 nM in series [11]; 3760 nM in series [5].

For `Cc1nn(C)c(Cl)c1Cn1c(C)c(C)c2c(-c3ccc(Cl)cc3)c([C@H](OC(C)(C)C)C(=O)O)c(C)nc21` [Example 2, (S)-2-(tert-butoxy)-2-(1-((5-chloro-1,3-dimethyl-1H-pyrazol-4-yl)methyl)-4-(4-chlorophenyl)-2,3,6-trimethyl-1H-pyrrolo[2,3-b]pyridin-5-yl) acetic acid], the EC50 in series [10] (Human immunodeficiency virus 1, MT4, Wild Type HIV-1(IIIB) in MT-4 Cells, MTT method, read-out: EC50: concentration of 50% inhibition of HIV infection) amounted to 25.7 nM.

`C[C@@H]1CCO[C@H]2Cn3cc(C(=O)NCc4ccc(F)cc4F)c(=O)c(O)c3C(=O)N12` [Dolutegravir]: the IC50 in series [1] (NL4-3 wt, read-out: IC50) was 3.2 nM; in [2], 3.5 nM; in [3], 3 nM; in series [4], 8.5 nM; in series [11], 4.4 nM; in [5] it was 3.2 nM.
